Data taken from US9187458B2, “Cyanoquinoline derivatives” (Tianjin Hemay Bio-Tech Co., LTD., priority 2010, dated 2015).
Each block holds one molecule with its values, some of them ahead of it.

Columns and labels:
BxPc-3 cells = experiment: BxPc-3 Cell Growth Inhibition Test (MTT Assay); assay type: cell-based; conditions: Homo sapiens, 72 h incubation
Procedure: BxPc-3 Cell Growth Inhibition Test (MTT Assay) Cell strains: BxPC-3 (human pancreatic cancer cell strains); Culture medium: 90% RPMI-1640+10% FBS; 1. A plate (10 cm) of cells in logarithmic growth phase normally cultured was collected; 2. The culture solution was sucked out. […] The plate was washed with 5 ml of PBS 1-2 times; 3. PBS was sucked out. 1.5 ml of 0.25% pancreatin was added to infiltrate the cells for 1 min; 4. The pancreatin was sucked out. The culture plate was placed in an incubator. Digestion was carried out for about 5 min at 37° C.; 5. 4.5 ml of complete culture solution was added to the culture plate to stop the digestion. The cells were carefully scoured with micropipette (1 ml) to give a uniform cell suspension. The suspension was implanted into a 96-well cell culture plate by 5000 cells/100 μl per well. The culture plate was incubated overnight under 5% CO2 at 37° C. In day 2, 100 μl of culture solution comprising a compound was added in each well, and further incubated for 72 h under 5% CO2 at 37° C. 6. The culture solution was sucked out; 7. 100 μl of serum-free culture solution containing 0.5 mg/ml MTT was added in each well, and incubated for 3 h; 8. The culture solution was carefully sucked out; 9. 100 μl of DMSO was added in each well and vibrated to dissolve; 10. OD values were determined at […]. 1. Calculation of Relative Inhibition Ratio The inhibition ratio of a compound on cell growth=(PC−n)/(PC−NC)×100% IC50: Concentration of a compound where inhibition ratio was 50%. IC50 values were fitted with Origin7.5.

NCI-H358 cells = experiment: NCI-H358 Cell Growth Inhibition Test (MTT Assay); assay type: cell-based; conditions: Homo sapiens, 72 h incubation
Procedure: NCI-H358 Cell Growth Inhibition Test (MTT Assay)
Cell strains: NCI-H358 (human non-small cell lung cancer cell strains);
(§1) 1. A plate (10 cm) of cells in logarithmic growth phase normally cultured was collected;
(§2) 2. The culture solution was sucked out. The plate was washed with 5 ml of PBS 1-2 times;
(§3) 3. PBS was sucked out. 1.5 ml of 0.25% pancreatin was added to infiltrate the cells for 1 min;
4. The culture plate was placed in an incubator. Digestion was carried out for about 5 min at 37° C.;
5. 3 ml of complete culture solution was added to the culture plate to stop the digestion. Tthe cells were carefully scoured with micropipette (1 ml) to give a uniform cell suspension. The suspension was implanted into a 96-well cell culture plate by 10000 cells/100 […] per well. The culture plate was incubated overnight under 5% CO2 at 37° C. In day 2, 100 μA of culture solution comprising a compound was added in each well, and further incubated for 72 h under 5% CO2 at 37° C.
(§4) 6. The culture solution was sucked out;
7. 100 μA of serum-free culture solution containing 0.5 mg/ml MTT was added in each well, and incubated for 3 h;
(§5) 8. The culture solution was carefully sucked out;
9. 100 μA of DMSO was added in each well and vibrated to dissolve;
(§6) 10. OD values were determined at 490 nM.
(§7) 1. Calculation of Relative Inhibition Ratio The inhibition ratio of a compound on cell growth=(PC−n)/(PC−NC)×100%
(§8) IC50: Concentration of a compound where inhibition ratio was 50%. IC50 values were fitted with Origin7.5.

SK-OV-3 cells = experiment: SK-OV-3 Cell Growth Inhibition Test (MTT Assay); assay type: cell-based; conditions: Homo sapiens, 72 h incubation
Procedure: SK-OV-3 Cell Growth Inhibition Test (MTT Assay)
Cell strains: SK-OV-3 (human ovarian cancer cell strains);
Culture medium: 90% McCoy's 5A+10% FBS;
as §1, §2, §3
4. The pancreatin was sucked out. The culture plate was placed in an incubator. Digestion was carried out for about 5 min at 37° C.;
5. 4.5 ml of complete culture solution was added to the culture plate to stop the digestion.T the cells were carefully scoured with micropipette (1 ml) to give a uniform cell suspension. The suspension was implanted into a 96-well cell culture disc by 4000 cells/100 μl per well. The culture plate was incubated overnight under 5% CO2 at 37° C. In day 2, 100 μl of culture solution comprising a compound was added in each well, and further incubated for 72 h under 5% CO2 at 37° C.
as §4
7. 100 μl of serum-free culture solution containing 0.5 mg/ml MTT was added in each well, and incubated for 3 h;
as §5
9. 100 μl of DMSO was added in each well and vibrated to dissolve;
as §6, §7, §8

MDA-MB-453 cells = experiment: MDA-MB-453 Cell Growth Inhibition Test (SRB Assay); assay type: cell-based; conditions: Homo sapiens, 72 h incubation
Procedure: MDA-MB-453 Cell Growth Inhibition Test (SRB Assay)
Cell strains: MDA-MB-453 (human breast cancer cell strains);
SRB: 0.4% (w/v) working solution was formulated with 1% glacial acetic acid, reserved at 4° C.; antitumor compounds; DMSO
Culture medium: 90% L15+10% FBS;
as §1
2. The culture solution was sucked out. The plate was washed with 5 mL of PBS 1-2 times;
3. 1.5 mL of 0.25% pancreatin was added to the plate to infiltrate the cells;
4. The pancreatin was sucked out. The culture plate was placed in an incubator. Digestion was carried out for about 3 min at 37° C.;
5. 4 mL of complete culture solution was added to the culture plate to stop the digestion. The cells were carefully scoured with micropipette (1 ml) to give a uniform single cell suspension. The suspension was implanted into a 96-well cell culture plate by 7000 cells/100 μl per well. The culture plate was incubated overnight under 5% CO2 at 37° C. In day 2, 100 μl of culture solution comprising a compound was added in each well, and further incubated for 72 h under 5% CO2 at 37° C.;
6. The culture solution was sucked out. 100 uL of TCA fixed cells which were diluted to 10% were added to each well. The plate was kept in a refrigerator for 1 h at 4° C.
7. TCA stationary liquid was sucked out. […]
13. OD values were determined at […]. […]

BT-474 cells = experiment: BT-474 Cell Growth Inhibition Test (SRB Assay); assay type: cell-based, human; conditions: Homo sapiens, 70 h incubation
Procedure, shortened: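 Human breast tumour BT-474 cells (1×10^5/ml seeding, overnight) exposed to compound 70 h at 37 °C, 5% CO2; TCA-fixed, SRB-stained, dye dissolved in 10 mM Tris and OD read at 570 nm. Inhibition ratio = (PC−n)/(PC−NC)×100%; IC50 is the concentration giving 50% inhibition, from fitted curves.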

SMILES: CN1CCC(Oc2cc3ncc(C#N)c(Nc4ccc(Oc5ccccc5)nc4)c3cc2NC(=O)/C=C2/CCNC2)CC1 [Example 131, (E/Z)-N-(3-CYANO-7-(1-METHYLPIPERIDIN-4-YL-OXY)-4-(6-(PHENOXYPYRIDIN-3-YL-AMINO)QUINOLIN-6-YL)-2-(PYRROLIDIN-3-YLIDENE)ACETAMIDE]
- IC50 (BxPc-3 cells): 0.306 µM

- IC50 (NCI-H358 cells): 0.11 µM
SMILES: C#Cc1cccc(Nc2c(C#N)cnc3cc(O[C@H]4CCOC4)c(NC(=O)/C=C/CN(CCO)CCO)cc23)c1 [Example 188, (S,E)-N-(3-CYANO-4-(3-ETHYNYLPHENYLAMINO)-7-(TETRAHYDROFURAN-3-YL-OXY)QUINOLIN-6-YL)-4-(DIETHANOLAMINO)-BUT-2-ENAMIDE]

- IC50 (SK-OV-3 cells): 0.312 µM
- IC50 (MDA-MB-453 cells): 0.523 µM
- IC50 (BT-474 cells): 0.108 µM
SMILES: C#Cc1cccc(Nc2c(C#N)cnc3cc(O[C@H]4CCOC4)c(NC(=O)/C=C/CN(C)CCOC)cc23)c1 [Example 189, (S,E)-N-(3-CYANO-4-(3-ETHYNYLPHENYLAMINO)-7-(TETRAHYDROFURAN-3-YL-OXY)QUINOLIN-6-YL)-4-(N-METHYLMETHOXYETHYLAMINO)-BUT-2-ENAMIDE]
- inhibition at 1 µM (BT-474 cells; BT-474, 70 h, compound 1 μM, read-out: Growth Inhibition Ratio (%)): 85%
